From PMC11284788, “NN1213 – A Potent, Long-Acting, and Selective Analog of Human Amylin” (Journal of Medicinal Chemistry, 2024)
≈ marks a conversion by molar mass, not a printed value. Where two headings read alike, the source gives them in different places. One block for each compound: values may come before it. Numbered stars: 1 amine (or outer) side, 2 acyl side, 3 side chain; on linkers, the order of the positions; unused ones are H or OH. Bridge positions count the residues as written; N and C are the ends. Side chains are listed from the residue outwards. Peptide text beside a SMILES is read from it. * marks the point of attachment. C20 diacid = O=C(O)CCCCCCCCCCCCCCCCCCC(=O)*; γGlu = O=C(O)[C@H](CCC(=O)[*:2])N[*:1]

How the values were obtained:
[1] = ThT assay: fibril formation propensity and peptide recovery; format: physicochemical; conditions: for ThT, pH 7.5 lag-time: 10 mM HEPES pH 7.5, 1 μM ThT; for recovery: residual dissolved peptide after 45 h of shaking, centrifugation and 0.22 μm filtration, HPLC, relative to amount before stress
Protocol: The stability properties of the individual amylin analogs were assessed with respect to their propensity toward fibril formation, expressed as the time until fibril formation (measured as Lag time) and loss of dissolved peptide (assessed as Peptide Recovery). […] Samples were prepared as described previously (using the same methodology and materials) for a novel amylin-based analog candidate compound.[7]
Briefly, each compound was dissolved in 10 mM of glycylglycine buffer (pH 4.0) or HEPES buffer (pH 7.5) to a concentration of 250 μM, followed by ThT stock solution to a final concentration of 1 μM. Each solution was aliquoted into a microtiter plate (200 μL/well) sealed with a transparent adhesive sheet. Mechanical stress was applied at 37 °C incubation (960 rpm, 1 mm amplitude) with 20 min fluorescence reading intervals for 45 h (filters: excitation 444 nm; emission 485 nm). Each peptide was tested in experiments consisting of four replicas (e.g., four wells on the same plate), and the lag time of each replica was determined by visual inspection of the fluorescence-versus-time plot. For wells where no fibril formation could be detected, the lag time was set longer than the test period (>45 h). The lag time of the peptide was set to the lowest lag time of the four replicates (conservative estimate). Some of the peptides were tested in more than one experiment, and the lag time results given in Tables 6 and 9 represent the average of these experiments. The ThT time course data given in Supporting Information represent the average and SEM of each experiment.[40] After analysis, wells representing individual replicas were pooled, and the residual soluble peptide was isolated using centrifugation (20,000 g/30 min at room temperature) followed by […] filtration. The amount of residual dissolved peptide was determined using an HPLC with a flow rate of 2 mL/min at 30 °C and 215/276 nm detection. A gradient combining eluent A (7.7% w/w acetonitrile, 200 mM Na2SO4, 20 mM NaH2PO4, 20 mM Na2HPO4, pH 7.2) and eluent B (65.5% w/w acetonitrile) was applied. The amount of residual dissolved peptide was reported on a relative scale (Peptide Recovery) to the amount of dissolved peptide prior to mechanical stress.

[2] = Solubility versus pH profile
[3] = HMWP content by size-exclusion chromatography; format: physicochemical; conditions: covalent dimers and polymers prior to fibril formation testing, SEC, % of total absorbance area at 215 nm
Protocol: The stability properties of the individual amylin analogs were assessed with respect to their propensity toward amyloid fibril formation. The relative amount of covalent dimers and polymers (HMWP) present prior to fibril formation testing was measured as a control for the potential inhibitory effect of HMWP on fibril formation propensity as reported elsewhere.[39]
Elution was performed under isocratic conditions with the following mobile phase prepared in Milli-Q water (Millipore A/S): 0.5 M NaCl, 10 mM sodium dihydrogen monohydrate, 5 mM ortho-phosphoric acid, 50% (v/v) 2-propanol. The amount of HMWP was determined as the absorbance area of the corresponding peaks given in percentage of the total absorbance area. The molar extinction coefficients of the molecules eluting in the HMWP fraction and the main peak was assumed to be equal.

hCTR = target: T1, hCTR (Homo sapiens, UniProt P30988); assay: cAMP-responsive element luciferase reporter assay, human CTR; format: cell-based; conditions: luciferase (human receptor assay)
T1 sequence (P30988 25-474): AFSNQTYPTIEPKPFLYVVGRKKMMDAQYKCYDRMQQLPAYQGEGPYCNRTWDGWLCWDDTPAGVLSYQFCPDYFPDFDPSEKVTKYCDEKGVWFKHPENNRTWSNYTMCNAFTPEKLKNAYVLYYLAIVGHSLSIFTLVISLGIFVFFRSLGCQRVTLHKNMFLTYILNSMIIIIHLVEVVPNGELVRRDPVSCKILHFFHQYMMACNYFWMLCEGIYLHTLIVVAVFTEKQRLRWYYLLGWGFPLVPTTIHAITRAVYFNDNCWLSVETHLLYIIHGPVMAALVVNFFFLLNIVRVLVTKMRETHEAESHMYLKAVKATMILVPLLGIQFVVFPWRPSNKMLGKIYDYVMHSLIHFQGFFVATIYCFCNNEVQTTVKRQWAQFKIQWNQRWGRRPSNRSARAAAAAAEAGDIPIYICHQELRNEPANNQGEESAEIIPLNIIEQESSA

hAMY3R = target: T2, hAMY3R (Homo sapiens, UniProt O60896+P30988); assay: cAMP-responsive element luciferase reporter assay, human AMY3R; format: cell-based; set-up: expressed in transfected cells; conditions: for EC50: luciferase (human receptor assay); for ratio hCTR/hAMY3R: ratio of luciferase EC50 values
T2 sequence (P30988 25-474): T1 sequence (P30988 25-474)
T2 sequence (O60896 24-148 partner): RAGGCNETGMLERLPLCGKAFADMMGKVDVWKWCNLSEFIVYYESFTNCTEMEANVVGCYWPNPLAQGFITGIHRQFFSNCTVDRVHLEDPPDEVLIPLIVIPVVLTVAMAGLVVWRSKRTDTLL

rats = assay: Acute food intake in rats; format: in vivo, rat; conditions: single sc injection of 30 nmol/kg, relative to vehicle, mean ± SEM, n = 5–7 per group
[4] = 250 μM peptide, 37 °C, 960 rpm, 45 h, lowest of four replicas, average of experiments
[5] = Tables S12 and S14, read-out: hCTR pEC50 (converted)
[6] = BHK cells stably expressing hCTR and CRE-luciferase, 3 h, 37 °C, 10% FBS, read-out: hCTR EC50
[7] = Tables S12 and S14, read-out: hAMY3R pEC50 (converted)
[8] = BHK cells stably expressing hCTR+RAMP3 and CRE-luciferase, 3 h, 37 °C, 10% FBS, read-out: hAMY3R EC50

- ThT, pH 7.5 lag-time [1, 4]: 4 h
- recovery ([1]; pH 7.5): 21%
- solubility kinetic ([2]; bis-tris-propane buffer, pH 6, aqueous buffer): 173 µM (≈ 788 µg/mL)
- solubility kinetic ([2]; bis-tris-propane buffer, pH 6.5, aqueous buffer): ≥ 200 µM
- solubility kinetic ([2]; bis-tris-propane buffer, pH 7, aqueous buffer): ≥ 200 µM
- solubility kinetic ([2]; bis-tris-propane buffer, pH 7.5, aqueous buffer): ≥ 200 µM
- solubility kinetic ([2]; bis-tris-propane buffer, pH 8, aqueous buffer): ≥ 200 µM
- solubility kinetic ([2]; lactate buffer, pH 4, aqueous buffer): ≥ 200 µM
- solubility kinetic ([2]; lactate buffer, pH 5, aqueous buffer): 38 µM (≈ 173 µg/mL)
- HMWP ([3]; analogs 1–9 (pH 7.5 series)): 5%
- EC50 (hCTR; [5]): 0.676 nM
- EC50 (hCTR; [6]): 0.672 nM
- EC50 (hAMY3R; [7]): 0.269 nM
- EC50 (hAMY3R; [8]): 0.267 nM
- ratio hCTR/hAMY3R (hAMY3R): 2.5
SMILES: CC[C@H](C)[C@H](NC(=O)[C@@H]1CCCN1C(=O)CNC(=O)[C@H](Cc1ccccc1)NC(=O)[C@@H]1CCCN1C(=O)[C@H](CC(N)=O)NC(=O)[C@H](CO)NC(=O)[C@H](CO)NC(=O)[C@H](Cc1c[nH]cn1)NC(=O)[C@H](CCCNC(=N)N)NC(=O)[C@H](CC(C)C)NC(=O)[C@H](Cc1ccccc1)NC(=O)[C@H](CC(=O)O)NC(=O)[C@H](C)NC(=O)[C@H](CC(C)C)NC(=O)[C@H](CCCNC(=N)N)NC(=O)[C@H](CCC(N)=O)NC(=O)[C@@H](NC(=O)[C@H](C)NC(=O)[C@@H]1CSSC[C@H](NC(=O)[C@@H](N)CCCCNC(=O)CC[C@H](NC(=O)CC[C@H](NC(=O)CCCCCCCCCCCCCCCCCCC(=O)O)C(=O)O)C(=O)O)C(=O)N[C@@H](CC(N)=O)C(=O)N[C@@H]([C@@H](C)O)C(=O)N[C@@H](C)C(=O)N[C@@H]([C@@H](C)O)C(=O)N1)[C@@H](C)O)C(=O)N[C@@H](CC(C)C)C(=O)N[C@@H](CO)C(=O)N[C@@H](CO)C(=O)N[C@H](C(=O)N[C@@H](CC(N)=O)C(=O)N[C@H](C(=O)NCC(=O)N[C@@H](CO)C(=O)N[C@@H](CC(=O)O)C(=O)N[C@H](C(=O)N[C@@H](Cc1ccc(O)cc1)C(N)=O)[C@@H](C)O)C(C)C)[C@@H](C)O [Peptide 4] (H-K([γGlu-γGlu-C20 diacid])CNTATCATQRLADFLRHSSNPFGPILSSTNVGSDTY-NH2; disulfide 2-7)

- ThT, pH 7.5 lag-time [1, 4]: >45 h
- recovery ([1]; pH 7.5): 100%
- HMWP ([3]; analogs 1–9 (pH 7.5 series)): 6%
- EC50 (hCTR; [5]): 8.32 nM
- EC50 (hCTR; [6]): 8.31 nM
- EC50 (hAMY3R; [7]): 1.07 nM
- EC50 (hAMY3R; [8]): 1.06 nM
- ratio hCTR/hAMY3R (hAMY3R): 7.8
SMILES: CC[C@H](C)[C@H](NC(=O)[C@@H]1CCCN1C(=O)CNC(=O)[C@H](Cc1ccccc1)NC(=O)[C@H](CC(N)=O)NC(=O)[C@H](CCC(=O)O)NC(=O)[C@H](CO)NC(=O)[C@H](CO)NC(=O)[C@H](Cc1c[nH]cn1)NC(=O)[C@H](CCCNC(=N)N)NC(=O)[C@H](CC(C)C)NC(=O)[C@H](Cc1ccccc1)NC(=O)[C@H](CC(=O)O)NC(=O)[C@H](C)NC(=O)[C@H](CC(C)C)NC(=O)[C@H](CCCNC(=N)N)NC(=O)[C@H](CCC(N)=O)NC(=O)[C@@H](NC(=O)[C@H](C)NC(=O)[C@@H]1CSSC[C@H](NC(=O)[C@@H](N)CCCCNC(=O)CC[C@H](NC(=O)CC[C@H](NC(=O)CCCCCCCCCCCCCCCCCCC(=O)O)C(=O)O)C(=O)O)C(=O)N[C@@H](CC(N)=O)C(=O)N[C@@H]([C@@H](C)O)C(=O)N[C@@H](C)C(=O)N[C@@H]([C@@H](C)O)C(=O)N1)[C@@H](C)O)C(=O)N[C@@H](CC(C)C)C(=O)N[C@@H](CO)C(=O)N[C@@H](CO)C(=O)N[C@H](C(=O)N1CCC[C@H]1C(=O)N[C@H](C(=O)NCC(=O)N[C@@H](CO)C(=O)N[C@@H](CC(=O)O)C(=O)N[C@H](C(=O)N[C@@H](Cc1ccc(O)cc1)C(N)=O)[C@@H](C)O)C(C)C)[C@@H](C)O [Peptide 9] (H-K([γGlu-γGlu-C20 diacid])CNTATCATQRLADFLRHSSENFGPILSSTPVGSDTY-NH2; disulfide 2-7)

- ThT, pH 4.0 lag-time ([1]; 250 μM peptide, 10 mM glycylglycine pH 4.0, 1 μM ThT, 37 °C, 960 rpm, 45 h, lowest of four replicas, average of experiments): 27 h
- recovery ([1]; pH 4.0): 67%
- solubility kinetic ([2]; pH 4, aqueous buffer): ≥ 200 µM
- solubility kinetic ([2]; pH 5, aqueous buffer): ≥ 200 µM
- solubility kinetic ([2]; pH 6, aqueous buffer): ≥ 200 µM
- solubility kinetic ([2]; pH 6.5, aqueous buffer): ≥ 200 µM
- solubility kinetic ([2]; pH 7, aqueous buffer): ≥ 200 µM
- solubility kinetic ([2]; pH 7.5, aqueous buffer): ≥ 200 µM
- solubility kinetic ([2]; pH 8, aqueous buffer): ≥ 200 µM
- HMWP ([3]; analogs 10–21 (pH 4.0 series)): 0.7%
SMILES: CC[C@H](C)[C@H](NC(=O)[C@H](C)NC(=O)CNC(=O)[C@H](Cc1ccccc1)NC(=O)[C@H](CC(N)=O)NC(=O)[C@@H]1CCCN1C(=O)[C@H](CO)NC(=O)[C@H](CO)NC(=O)[C@H](Cc1c[nH]cn1)NC(=O)[C@H](CCCNC(=N)N)NC(=O)[C@H](CC(C)C)NC(=O)[C@H](Cc1ccccc1)NC(=O)[C@H](CC(N)=O)NC(=O)[C@H](C)NC(=O)[C@H](CC(C)C)NC(=O)[C@H](CCCNC(=N)N)NC(=O)[C@H](CCC(N)=O)NC(=O)[C@@H](NC(=O)[C@H](C)NC(=O)[C@@H]1CSSC[C@H](NC(=O)[C@H](CCCCN)NC(=O)COCCOCCNC(=O)CC[C@H](NC(=O)CCCCCCCCCCCCCCCCCCC(=O)O)C(=O)O)C(=O)N[C@@H](CC(N)=O)C(=O)N[C@@H]([C@@H](C)O)C(=O)N[C@@H](C)C(=O)N[C@@H]([C@@H](C)O)C(=O)N1)[C@@H](C)O)C(=O)N1CCC[C@H]1C(=O)N[C@@H](CO)C(=O)N[C@@H](CO)C(=O)N[C@H](C(=O)N[C@@H](CC(N)=O)C(=O)N[C@H](C(=O)NCC(=O)N[C@@H](CO)C(=O)N[C@@H](CCCNC(=N)N)C(=O)N[C@H](C(=O)N[C@@H](Cc1ccc(O)cc1)C(N)=O)[C@@H](C)O)C(C)C)[C@@H](C)O [Peptide 15]
- Acute food intake reduction 24–48 h (rats): 0 ± 5%
